pEC50, pIC50, pKi: −log10 of the molar value.
How the values were obtained:
[1] = target: T1, human D2R/β-arrestin (Homo sapiens (Human), UniProt P14416); assay: cell-based; settings: β-arrestin Antagonist
Experimental: (§1) Cells were prepared for assays by growing cultures for up to 2 weeks (from about 6-20 passages). A vial of frozen cells was thawed in a water bath held at 37° C. The cells were then transferred into a 50 ml tube with 10 ml growth media. The vial was rinsed with growth media and the contents transferred to the 50 ml tube. The 50 ml tube was centrifuged at 1200 rpm for 5 minutes at room temperature. […] When the cells reached about 90% confluence (approximately 3 days between passages), the cells were passaged and used for either the agonist or antagonist assays as described below.
(§2) The cells were prepared for β-arrestin assays as described above. The assays were performed using a PathHunter® β-Arrestin Detecting Kit (DiscoveRX). The cells were grown on 225 mm dishes, then washed once with 1×PBS (Cellgro), followed by digestion with 2.5 ml 1× Detachment reagent (DRX 92-0009) for approximately 2 minutes.

[2] = target: T1, human D2R/β-arrestin; assay: cell-based; settings: cAMP Antagonist
[3] = target: T1, human D2R/β-arrestin; assay: β-arrestin agonist assay (PathHunter); type: cell-based; settings: CHO-K1 cells expressing human D2R/β-arrestin; agonist mode
Experimental: The detection reagent (9.6 μL, Buffer:Emerald II:Galactor-Star in a 19:5:1 ratio, i.e., 14.06 mL:3.7 mL:0.74 mL=18.5 mL) was then added to the agonist plates.

[4] = target: D2 receptor (Homo sapiens (Human), UniProt P14416); assay: D2 radioligand binding assay
Sequence of D2 receptor (P14416 whole entry): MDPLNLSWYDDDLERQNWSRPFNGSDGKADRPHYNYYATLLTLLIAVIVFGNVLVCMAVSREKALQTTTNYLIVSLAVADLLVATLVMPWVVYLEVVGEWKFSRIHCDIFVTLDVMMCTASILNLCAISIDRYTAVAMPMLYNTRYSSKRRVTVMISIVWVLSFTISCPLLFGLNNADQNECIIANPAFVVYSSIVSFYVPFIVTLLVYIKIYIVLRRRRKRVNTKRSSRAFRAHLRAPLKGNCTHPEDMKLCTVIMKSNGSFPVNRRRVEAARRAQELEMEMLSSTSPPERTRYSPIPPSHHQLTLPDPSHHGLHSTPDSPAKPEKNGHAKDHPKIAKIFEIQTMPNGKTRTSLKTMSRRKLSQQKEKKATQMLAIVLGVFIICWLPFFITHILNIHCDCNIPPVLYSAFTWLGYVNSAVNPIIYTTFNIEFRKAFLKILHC

[5] = target: T1, human D2R/β-arrestin; assay: Gi/cAMP agonist assay (Lance Ultra cAMP, forskolin); type: cell-based; settings: CHO-K1 cells expressing human D2R/β-arrestin; agonist mode, 2.5 μM forskolin
Experimental: Eu-cAMP tracer solution (10 μl, PerkinElmer, 360 μl of Tracer in 17.64 ml kit buffer) and ULight-anti-cAMP solution (10 μl, 120 μL antibody in 17.88 ml kit buffer) was then added to each well.

[6] = target: T1, human D2R/β-arrestin; settings: CHO-K1 cells expressing human D2R/β-arrestin; antagonist mode, quinpirole 130 nM
Experimental: as §1, §2

[7] = CHO-K1 cells expressing human D2R/β-arrestin, antagonist mode, quinpirole 130 nM
[8] = CHO-K1 cells expressing human D2R/β-arrestin, antagonist mode, 2.5 μM forskolin and 2.7 nM quinpirole

T1 sequence (P14416 whole entry): as above

`CC1(Oc2ccc(Cl)cc2)CCN(CCOc2ccccc2)C1` (stereo not shown) [Compound 1, 3-(4-chlorophenoxy)-3-methyl-1-(2-phenoxyethyl)pyrrolidine] gave a pIC50 [1, 7] of 5.00 to 6.00, a pIC50 [2, 8] of under 4.52 and a pEC50 [3] of under 4.52. The pKi [4] was 5.00 to 6.00 and the pEC50 [5] was over 7.00.
Compound `CC1(Oc2ccc(Cl)cc2)CCN(CCn2ccccc2=O)C1` (stereo not shown) [Compound 7, 1-(2-(3-(4-chlorophenoxy)-3-methylpyrrolidin-1-yl)ethyl)pyridin-2(1H)-one] has a pIC50 [1, 7] of under 4.52, a pIC50 [2, 8] of under 4.52 and a pEC50 [3] of under 4.52. For the same compound, the pKi [4] was 4.52 to 5.00 and the pEC50 [5] was under 4.52.
For `CC1(Oc2ccc(Cl)cc2)CCN(CCCCOc2ccccc2F)C1` (stereo not shown) [Compound 27, 3-(4-chlorophenoxy)-1-(4-(2-fluorophenoxy)butyl)-3-methylpyrrolidine], the pIC50 [1, 7] was 5.00 to 6.00, the pIC50 [2, 8] was 6.00 to 7.00 and the pEC50 [3] was under 4.52. It also gave a pKi [4] of 6.00 to 7.00 and a pEC50 [5] of under 4.52.
Compound `CC1(Oc2ccc(Cl)cc2)CCN(CCOc2cc(F)ccc2C(F)(F)F)CC1` [Compound 122, 4-(4-Chlorophenoxy)-1-(2-(5-fluoro-2-(trifluoromethyl)phenoxy)ethyl)-4-methylpiperidine] has a pIC50 [1, 7] of 6.00 to 7.00, a pIC50 [2, 8] of under 4.52 and a pEC50 [3] of under 4.52. It also gave a pKi [4] of 6.00 to 7.00 and a pEC50 [5] of over 7.00.
`COC1(C)CCN(CCOc2ccccc2C(F)(F)F)CC1` [Compound 123, 4-methoxy-4-methyl-1-(2-(2-(trifluoromethyl)phenoxy)ethyl) piperidine] showed a pIC50 [1, 7] of 6.00 to 7.00, a pIC50 [2, 8] of 6.00 to 7.00 and a pEC50 [3] of under 4.52. The pKi [4] was over 7.00 and the pEC50 [5] was under 4.52.
With `FC(F)(F)c1ccccc1OCCN1CCC2(CCCN2c2ccc(Cl)cc2)CC1` [Compound 135, 1-(4-Chlorophenyl)-8-(2-(2-(trifluoromethyl)phenoxy)ethyl)-1,8-diazaspiro[4.5]decane] the pIC50 [1, 7] was over 7.00, the pIC50 [2, 8] was over 7.00 and the pEC50 [3] was under 4.52. The pKi [4] was over 7.00 and the pEC50 [5] was under 4.52.
In the case of `Fc1ccccc1OCCN1CCC2(CC1)CCN2c1ccc(Cl)cc1` [Compound 137, 1-(4-chlorophenyl)-7-(2-(2-fluorophenoxy)ethyl)-1,7-diazaspiro[3.5]nonane], the pIC50 [1, 7] was over 7.00, the pIC50 [2, 8] was over 7.00 and the pEC50 [3] was under 4.52. It also gave a pKi [4] of over 7.00 and a pEC50 [5] of under 4.52.
`CC1(O)CCN(CC2COc3ccccc3O2)CC1` (stereo not shown) [Compound 140, 1-((2,3-dihydrobenzo[b][1,4]dioxin-2-yl)methyl)-4-methylpiperidin-4-ol] showed a pIC50 [1, 7] of 6.00 to 7.00, a pIC50 [2, 8] of under 4.52 and a pEC50 [3] of 5.00 to 6.00. It also gave a pKi [4] of 4.52 to 5.00 and a pEC50 [5] of over 7.00.
With `Clc1ccc2c(c1)CC1(CCN(CCOc3ccccc3)C1)O2` (stereo not shown) [Compound 144, 5-chloro-1′-(2-phenoxyethyl)-3H-spiro[benzofuran-2,3′-pyrrolidine]] the pIC50 [1, 7] was 5.00 to 6.00, the pIC50 [2, 8] was 6.00 to 7.00 and the pEC50 [3] was under 4.52. For the same compound, the pKi [4] was 6.00 to 7.00 and the pEC50 [5] was under 4.52.
`CC1(Oc2ccccn2)CCN(CCOc2ccc(C(F)(F)F)cc2)CC1` [Compound 164, 2-((4-methyl-1-(2-(4-(trifluoromethyl)phenoxy)ethyl)piperidin-4-yl)oxy)pyridine] gave a pIC50 [1, 7] of 4.52 to 5.00, a pIC50 [2, 8] of under 4.52 and a pEC50 [3] of under 4.52. The pKi [4] was 4.52 to 5.00 and the pEC50 [5] was 6.00 to 7.00.
In the case of `CN(C)C(=O)C1(C)CCN(C[C@H]2COc3ccccc3O2)CC1` [Compound 205, (S)-1-((2,3-dihydrobenzo[b][1,4]dioxin-2-yl)methyl)-N,N,4-trimethylpiperidine-4-carboxamide], the pIC50 [1, 7] was 6.00 to 7.00, the pIC50 [2, 8] was under 4.52 and the pEC50 [3] was 6.00 to 7.00. The pKi [4] was 6.00 to 7.00 and the pEC50 [5] was over 7.00.
`CC1(C(=O)N2CCCC2)CCN(C[C@H]2COc3ccccc3O2)CC1` [Compound 206, (S)-(1-((2,3-dihydrobenzo[b][1,4]dioxin-2-yl)methyl)-4-methylpiperidin-4-yl)(pyrrolidin-1-yl)methanone] gave a pIC50 [1, 7] of over 7.00, a pIC50 [2, 8] of under 4.52 and a pEC50 [3] of over 7.00. It also gave a pKi [4] of 6.00 to 7.00 and a pEC50 [5] of over 7.00.
`CC(=O)NC1(C)CCN(C[C@H]2COc3ccccc3O2)CC1` [Compound 208, (S)—N-(1-((2,3-dihydrobenzo[b][1,4]dioxin-2-yl)methyl)-4-methylpiperidin-4-yl)acetamide] showed a pIC50 [1, 7] of over 7.00, a pIC50 [2, 8] of under 4.52 and a pEC50 [3] of 6.00 to 7.00. It also gave a pKi [4] of 6.00 to 7.00 and a pEC50 [5] of over 7.00.
`CC1(NC(=O)C2CC2)CCN(C[C@H]2COc3ccccc3O2)CC1` [Compound 209, (S)—N-(1-((2,3-dihydrobenzo[b][1,4]dioxin-2-yl)methyl)-4-methylpiperidin-4-yl)cyclopropanecarboxamide] was tested, and the pIC50 [1, 7] was over 7.00, the pIC50 [2, 8] was under 4.52 and the pEC50 [3] was under 4.52. It also gave a pKi [4] of 6.00 to 7.00 and a pEC50 [5] of over 7.00.
`CC(=O)NC1(C)CCN(C[C@H]2COc3ccc(F)cc3O2)CC1` [Compound 210, (S)—N-(1-((7-fluoro-2,3-dihydrobenzo[b][1,4]dioxin-2-yl)methyl)-4-methylpiperidin-4-yl)acetamide] showed a pIC50 [1, 7] of 6.00 to 7.00, a pIC50 [2, 8] of under 4.52 and a pEC50 [3] of 6.00 to 7.00. The pKi [4] was 6.00 to 7.00 and the pEC50 [5] was over 7.00.
Compound `CC(=O)NC1(C)CCN(C[C@H]2COc3ccc(Br)cc3O2)CC1` [Compound 211, (S)—N-(1-((7-bromo-2,3-dihydrobenzo[b][1,4]dioxin-2-yl)methyl)-4-methylpiperidin-4-yl)acetamide] has a pIC50 [1, 7] of over 7.00, a pIC50 [2, 8] of over 7.00 and a pEC50 [3] of under 4.52. For the same compound, the pKi [4] was over 7.00 and the pEC50 [5] was under 4.52.
In the case of `CC1(Oc2ccc(C(F)(F)F)cc2)CCN(CCOc2ccccc2)C1` (stereo not shown) [Example 54, 3-methyl-1-(2-phenoxyethyl)-3-(4-(trifluoromethyl)phenoxy)pyrrolidine], the pIC50 [1, 7] was 5.00 to 6.00, the pIC50 [2, 8] was 4.52 to 5.00 and the pEC50 [3] was under 4.52. For the same compound, the pKi [4] was 5.00 to 6.00 and the pEC50 [5] was 6.00 to 7.00.
`CC1(Oc2cccc(C(F)(F)F)c2)CCN(CCOc2ccccc2)C1` (stereo not shown) [Example 55, 3-methyl-1-(2-phenoxyethyl)-3-(3-(trifluoromethyl)phenoxy)pyrrolidine] showed a pIC50 [1, 7] of 5.00 to 6.00, a pIC50 [2, 8] of under 4.52 and a pEC50 [3] of under 4.52. The pKi [4] was 5.00 to 6.00 and the pEC50 [5] was over 7.00.
With `CC1(Oc2ccncc2)CCN(CCOc2ccccc2)C1` (stereo not shown) [Example 59, 4-((3-methyl-1-(2-phenoxyethyl)pyrrolidin-3-yl)oxy)pyridine] the pIC50 [1, 7] was under 4.52, the pIC50 [2, 8] was under 4.52 and the pEC50 [3] was 4.52 to 5.00. It also gave a pKi [4] of 5.00 to 6.00 and a pEC50 [5] of over 7.00.
`CC1(Oc2ccccc2)CCN(CCOc2ccc(C(F)(F)F)cc2)CC1` [Example 68] showed a pIC50 [1, 7] of under 4.52, a pIC50 [2, 8] of under 4.52 and a pEC50 [3] of under 4.52. For the same compound, the pKi [4] was 6.00 to 7.00 and the pEC50 [5] was over 7.00.
With `CC1(Oc2ccccc2)CC2CCC(C1)N2CCOc1ccccc1C(F)(F)F` (stereo not shown) [Example 78, 3-Methyl-3-phenoxy-8-(2-(2-(trifluoromethyl)phenoxy)ethyl)-8-azabicyclo[3.2.1]octane] the pIC50 [1] was 6.00 to 7.00, the pIC50 [2] was 5.00 to 6.00 and the pEC50 [3] was under 4.52. It also gave a pKi [4] of 6.00 to 7.00 and a pEC50 [5] of 4.52 to 5.00.
Compound `CC1(Oc2ccc(Cl)cc2)CCN(CCOc2ccccc2F)CC1` [Example 86, 4-(4-chlorophenoxy)-1-(2-(2-fluorophenoxy)ethyl)-4-methylpiperidine] has a pIC50 [1, 7] of under 4.52, a pIC50 [2, 8] of under 4.52 and a pEC50 [3] of over 7.00. It also gave a pKi [4] of over 7.00 and a pEC50 [5] of over 7.00.
`CC1(Oc2ccccc2)CCN(CCOc2ccccc2C(F)(F)F)CC1` [Example 91, 4-methyl-4-phenoxy-1-(2-(2-(trifluoromethyl)phenoxy)ethyl)piperidine] was tested, and the pIC50 [1, 7] was over 7.00, the pIC50 [2, 8] was under 4.52 and the pEC50 [3] was under 4.52. For the same compound, the pKi [4] was 6.00 to 7.00 and the pEC50 [5] was over 7.00.
For `CC1(Oc2ccc(Cl)cc2)CCCN(CCOc2ccccc2)C1` (stereo not shown) [Example 96, 3-(4-chlorophenoxy)-3-methyl-1-(2-phenoxyethyl)piperidine], the pIC50 [1, 7] was 6.00 to 7.00, the pIC50 [2, 8] was over 7.00 and the pEC50 [3] was under 4.52. For the same compound, the pKi [4] was 6.00 to 7.00 and the pEC50 [5] was under 4.52.
With `CC1(Oc2ccc(Cl)cc2)CCCN(CCOc2ccc3scnc3c2)C1` (stereo not shown) [Example 99, 5-(2-(3-(4-chlorophenoxy)-3-methylpiperidin-1-yl)ethoxy)benzo[d]thiazole] the pIC50 [1, 7] was 6.00 to 7.00, the pIC50 [2, 8] was over 7.00 and the pEC50 [3] was under 4.52. The pKi [4] was 6.00 to 7.00 and the pEC50 [5] was under 4.52.
With `CC1(C(=O)c2ccccc2)CCN(CCOc2ccccc2C(F)(F)F)CC1` [Example 106, (4-Methyl-1-(2-(2-(trifluoromethyl)phenoxy)ethyl)piperidin-4-yl) (phenyl)methanone] the pIC50 [1, 7] was 6.00 to 7.00, the pIC50 [2, 8] was over 7.00 and the pEC50 [3] was under 4.52. It also gave a pKi [4] of over 7.00 and a pEC50 [5] of under 4.52.
For `CC1(Oc2ccccc2)CCN(CCOc2ccccc2OC(F)(F)F)CC1` [Example 110, 4-methyl-4-phenoxy-1-(2-(2-(trifluoromethoxy)phenoxy)ethyl) piperidine], the pIC50 [1, 7] was 6.00 to 7.00, the pIC50 [2, 8] was under 4.52 and the pEC50 [3] was under 4.52. The pKi [4] was over 7.00 and the pEC50 [5] was over 7.00.
In the case of `CN(c1ccccc1)C1(C)CCN(CCOc2ccccc2C(F)(F)F)CC1` [Example 112], the pIC50 [1] was 6.00 to 7.00, the pIC50 [2] was under 4.52 and the pEC50 [3] was under 4.52. For the same compound, the pKi [4] was 6.00 to 7.00 and the pEC50 [5] was 6.00 to 7.00.
In the case of `Clc1cccc(C2CCN(CCCOc3ccc4scnc4c3)CC2)c1Cl` [UNC9994, reference compound], the “β-arrestin Agonist” value [3] was “B or C” and the “β-arrestin Antagonist” value [6] was “B or C”.
